Series [1] concerns human skin. Kind of series: Examination for bleaching effect (lotion applied to sunlight-exposed skin, depression effect to the chromatosis). The settings on record: for improvement of bleaching effect by added ingredient (in words): added to preparation including 2-hydroxy alkoxybenzoic acid; for bleaching effect: lotion with 1.0 wt % sample, each morning and evening, 8 weeks, 10 subjects per group. The class given is in vivo. As for the experimental part: (2) E[…] BLEACHING EFFECT
Lotions were prepared by the following formula, using each sample. Namely, the alcohol phase and aqueous phase according to the following formula were prepared respectively, and both phases were mixed and dissolved according to an ordinal method. […]
______________________________________
Polyoxyethylene (25 moles) hydrogenated castor
Sodium hexametaphosphorate
Ion exchanged water balance
10 subjects for each group were exposed to sunlight in summer for 4 hours (2 hours×2 days). The lotion was applied to the facial skin of medialis brachii once each morning and evening […] after the day exposed to the sunlight for 8 weeks. After the application period, depression effect to the chromatosis which was caused by the ultraviolet irradiation was examined and evaluated, the degree of which was based on The following standard.
.circleincircle.: The number of the subjects who judged the result was "extremely effective" or "effective" were equal to or more than eight (Equal to or more than 80%).
.largecircle.: The number of the subjects who judged the result was "extremely effective" or "effective" were five to seven (from 50% less than 70%)
Δ: The number of the subjects who judged the result was "extremely effective" or "effective" were three to four (from 30% less than 40%)
×: The number of the subjects who judged the result was "extremely effective" or "effective" were less than two (less than 20%)
The inhibition effect to the tyrosinase activity which is essential for producing the melanine and bleaching effect for human skin by the 2-hydroxy alkoxybenzoic acid were examined by using samples described in TABLE 1.
The investigation for improvement of bleaching effect by adding other ingredients were carried out as described below.
Namely, the 2-hydroxy-3-methoxybenzoic acid as the 2-hydroxy alkoxy benzoic acid and sodium hyaluronate as the acid mucopolysaccharide were used for the examination of improvement of bleaching effect.
Lotions for the examination were prepared by adding 0.5 weight % of 2-hydroxy-3-methoxybenzoic acid into the alcohol phase and sodium hyaluronate into the aqueous phase of which the concentration as to be shown in TABLE 3.

The target in series [2] is mushroom tyrosinase. Kind of series: Examination for inhibition of tyrosinase activity (L-DOPA substrate, absorbance at 475 nm). The settings on record: for IC50: L-DOPA substrate, pH 8.8 phosphate buffer, 1.5 minutes, room temperature, read-out: ID50 (inhibition of tyrosinase activity). Format: biochemical. The protocol:
(1) EXAMINATION FOR INHIBITION OF TYROSINASE ACTIVITY
10 mg L-DOPA (guaranteed reagent) is dissolved at the time of examination in 20 ml of phosphate buffer described in 3) below and prepared 0.05% L-DOPA solution.
3) 0.1-M phosphate buffer
The buffer was prepared at pH 8.8.
Preparation of sample solution
The sample described in TABLE 1 below are diluted by ethanol to the concentration with 3 standards.
The measurement of the tyrosinase activity was carried out by a modified method of Pomerantz, using L-DOPA (guaranteed reagent) as the substrate and measuring the absorbance at 475 nm at which the absorption of dihydroxyphenylalanine chrome (reaction product) exists.
Namely, 1.0 ml of the L-DOPA solution and 1.8 ml of the phosphate buffer were added in 0.1 ml of the sample solutions. 0.1 ml of tyrosinase solution was added and mixed for reaction for 1.5 minutes at room temperature. The absorbance at 475 nm was measured by using a spectrophotometer (type 220 A Spectrophotometer, HITACHI corporation) and the measured value was expressed by T.
Also, 1.0 ml of distilled water instead of the L-DOPA solution. 1.8 ml of the phosphate buffers and 0.1 ml of the sample solutions were mixed, operated in the same way above, measured the absorbance and obtained the value T' as a reagent blank of the sample.
0.1 ml of ethanol instead of the sample solutions was added to the mixture of 1.0 mo of the L-DOPA and 1.8 ml of phosphate buffers, operated in the same way above and obtained the value C as a control.
1.8 ml of phosphate buffers and 0.1 ml of ethanol were added to 1.0 ml of distilled water instead of L-DOPA solution, operated in the same way above and obtained the value C' as a reagent blank of the control.
Inhibition of tyrosinase activity in each sample concentration were obtained by the following formula. The result was described as semilog graph of which a logarithmic scale indicates concentration of the sample and another scale indicates inhibition ratio of the activity.
Incidentally, the values T, T', C, and C' were measured three times and averages were used for the calculation.
Inhibition of tyrosinase activity (%)=100×[1-(T-T')/(C-C')]

In series [3] the test system is human skin. The settings on record: stated as known; cited from earlier work.
Series [4] can be described thus: Stability of the samples. The settings on record: TABLE 1 and TABLE 2; symbols not defined.

As for `CCOC(=O)c1ccc(O)cc1` [ethyl p-hydroxybenzoate], the “improvement of bleaching effect by added ingredient (in words)” value (“improvement of bleaching effect” for short) in series [1] is “excellent improvement effect of bleaching”.
Regarding `Oc1ccc(O)cc1` [a, hydroquinone, reference compound], the IC50 in series [2] was determined as 4.2 mM. For the same molecule, the bleaching effect result in series [1] is recorded as “Δ (The number of the subjects who judged the result was "extremely effective" or "effective" were three to four (from 30% less than 40%))”. The “side effect (known)” value in series [3] is reported as “have side effect”.
Consider `O=C(O)c1cc(O)ccc1O` [b, gentisic acid, reference compound], for which the IC50 in series [2] came to 13.6 mM. Besides, in series [1], the bleaching effect result is recorded as “Δ (The number of the subjects who judged the result was "extremely effective" or "effective" were three to four (from 30% less than 40%))”. For the same molecule, the “side effect (known)” value in series [3] is recorded as “have side effect”. Moreover, in series [4], the stability result is “Δ”.
Consider `Cc1cccc(C(=O)O)c1O` [Example 5, 2-hydroxy-3-methylbenzoic acid], for which the bleaching effect result in series [1] is recorded as “.circleincircle. (The number of the subjects who judged the result was "extremely effective" or "effective" were equal to or more than eight (Equal to or more than 80%))”.
With `COc1ccc(C(=O)[O-])c(O)c1.[K+]` [potassium 2-hydroxy-4-methoxybenzoate], the “subjects who judged the effect was "extremely effective" or "effective"” value in series [1] (bleaching effect examination, lotion) is 80%.
For `O=C1O[C@H]([C@@H](O)CO)C(O)=C1O` [c, ascorbic acid, reference compound], in series [2], the “inhibition of tyrosinase activity (in words)” value was “high inhibition effect” and the IC50 is 0.3 mM. Also, the “bleaching effect (in words)” value in series [1] (in vivo) is given as “rather low level”. In addition, the bleaching effect entry in series [1] is recorded as “.smallcircle”.
Regarding `Cc1ccc(C(=O)O)c(O)c1` [Example 6, 2-hydroxy-4-methylbenzoic acid], in series [1], the bleaching effect entry is given as “.circleincircle. (The number of the subjects who judged the result was "extremely effective" or "effective" were equal to or more than eight (Equal to or more than 80%))”. For the same molecule, the stability result in series [4] is recorded as “.smallcircle”.
In the case of `O=C(O)CN(CCN(CC(=O)O)CC(=O)O)CC(=O)O` [disodium ethylenediamine tetraacetate], the “improvement of bleaching effect” value in series [1] is “excellent improvement effect of bleaching”.
The same measure, in the same setting: the entry for `CC(=O)Oc1c(C)c(C)c2c(c1C)CCC(C)(CCC[C@H](C)CCC[C@H](C)CCCC(C)C)O2` (some centres unmarked) [tocopherol acetate] is “excellent improvement effect of bleaching”.
Regarding `COc1ccc(C(=O)O)c(O)c1` [Example 2, 2-hydroxy-4-methoxybenzoic acid], in series [2], the IC50 turned out to be 1 mM. The bleaching effect entry in series [1] is “.circleincircle. (The number of the subjects who judged the result was "extremely effective" or "effective" were equal to or more than eight (Equal to or more than 80%))”.
Turning to `COc1ccc(O)c(C(=O)O)c1` [Example 3, 2-hydroxy-5-methoxybenzoic acid], in series [2], the IC50 was found to be 4.5 mM. Besides, the bleaching effect entry in series [1] was “.circleincircle. (The number of the subjects who judged the result was "extremely effective" or "effective" were equal to or more than eight (Equal to or more than 80%))”. Further, in series [4], the stability result is on record as “.smallcircle”.
For `CCOc1ccc(C(=O)O)c(O)c1` [Example 4, 2-hydroxy-4-ethoxybenzoic acid], the IC50 in series [2] is 2 mM. Also, the bleaching effect entry in series [1] was “.circleincircle. (The number of the subjects who judged the result was "extremely effective" or "effective" were equal to or more than eight (Equal to or more than 80%))”. Further, the stability result in series [4] was “.smallcircle”.
Take sodium hyaluronate: in series [1], the “improvement of bleaching effect” value was “extremely improved”.
In the case of `COc1cccc(C(=O)O)c1O` [Example 1, 2-hydroxy-3-methoxybenzoic acid], the IC50 in series [2] turned out to be 21 mM. Besides, in series [1], the bleaching effect result is on record as “.circleincircle. (The number of the subjects who judged the result was "extremely effective" or "effective" were equal to or more than eight (Equal to or more than 80%))”. The stability entry in series [4] is on record as “.smallcircle”.
For `COC(=O)c1ccc(O)cc1` [methyl p-hydroxybenzoate], the “improvement of bleaching effect” value in series [1] is “excellent improvement effect of bleaching”.
As for `CCc1ccc(C(=O)O)c(O)c1` [Example 8, 2-hydroxy-4-ethylbenzoic acid], the bleaching effect result in series [1] is on record as “.circleincircle. (The number of the subjects who judged the result was "extremely effective" or "effective" were equal to or more than eight (Equal to or more than 80%))”. Also, the stability result in series [4] was “.smallcircle”.
For `Cc1ccc(O)c(C(=O)O)c1` [Example 7, 2-hydroxy-5-methylbenzoic acid], in that order: “.circleincircle. (The number of the subjects who judged the result was "extremely effective" or "effective" were equal to or more than eight (Equal to or more than 80%))” and “.smallcircle”.

The record behind these values is US5580549A, “External preparation for skin” (priority 1992, dated 1996).
